Eleven molecules from ChEMBL document CHEMBL1201862, “PubChem BioAssay data set” (2004) can be followed below.

Test systems include 786-0; CAKI-1; EKVX; LOX IMVI; LXFL 529; NCI-H23; NCI-H460; OVCAR-8; SF-268; SF-539; SK-MEL-28; SK-MEL-2; SN12C; U-251; BT-549; HCC 2998; MDA-MB-435; MDA-N; Malme-3M; PC-3.
Common to all, as to test: DTP human tumour cell line panel, 48 h

Structures are written as SMILES.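 The compound was tested at five concentrations on cells cultured in 96-well plates, with a 48-hour exposure period. Here, GI50 denotes the concentration required for 50% inhibition of growth.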 Activity calls are given as the source filed them. Rule as the data show it: active = GI50 up to about 1.1 µM and inactive = higher.

Take `COc1ccc2nccc(C3OC(=O)N4CCC(=O)CC34)c2c1` (stereo not drawn): the GI50 in the experiment with 786-0, in the experiment on CAKI-1, with EKVX, in the experiment with LOX IMVI, in the experiment on LXFL 529 and in the experiment on NCI-H23 was > 100 µM (inactive) in each case. For the same molecule, the GI50 with NCI-H460, in the experiment with OVCAR-8, with SF-268, in the experiment with SF-539, with SK-MEL-28 and with SK-MEL-2 was > 100 µM (inactive) each time. The GI50 with SN12C and with U-251 was > 100 µM (inactive) in each case.
Consider `COC(=O)c1cc2ccc(O)c(O)c2cn1`, for which the GI50 with 786-0 is 2.7 µM (inactive); in the experiment with BT-549, > 10 µM (inactive); with CAKI-1 it was 13 µM (inactive); in the experiment on EKVX it was 21.4 µM (inactive); with HCC 2998, > 10 µM (inactive); in the experiment with LOX IMVI, 1.96 µM (inactive). For the same molecule, the GI50 was 1.73 µM (inactive) in the experiment on MDA-MB-435; 1.52 µM (inactive) in the experiment with MDA-N; 14.4 µM (inactive) with Malme-3M; 15.7 µM (inactive) with NCI-H23; 19 µM (inactive) in the experiment on NCI-H460; 13.9 µM (inactive) in the experiment with OVCAR-8. For the same molecule, the GI50 is 24.9 µM (inactive) in the experiment with PC-3; 17.1 µM (inactive) in the experiment with SF-268; 18.7 µM (inactive) in the experiment with SF-539; 20.4 µM (inactive) with SK-MEL-28; 18.1 µM (inactive) with SK-MEL-2; 9.1 µM (inactive) in the experiment with SN12C. Further, in the experiment on U-251, the GI50 was 8.55 µM (inactive).
As for `O=C1C(=Cc2ccco2)C(=O)C2CCCCC12` (stereo not drawn), the GI50 in the experiment on 786-0, in the experiment with BT-549, in the experiment with CAKI-1, with EKVX, in the experiment on HCC 2998 and in the experiment with LOX IMVI was > 100 µM (inactive) throughout. The GI50 with MDA-MB-435, with MDA-N, with Malme-3M, in the experiment on NCI-H23, with NCI-H460 and with OVCAR-8 was > 100 µM (inactive) each time. The GI50 with PC-3, in the experiment with SF-268, in the experiment with SF-539, in the experiment on SK-MEL-28, in the experiment with SK-MEL-2 and with SN12C was > 100 µM (inactive) throughout. In addition, the GI50 in the experiment on U-251 is > 100 µM (inactive).
Turning to `C[C@H](C(=O)C12CC3CC(CC(C3)C1)C2)[C@H](O)c1ccccc1`, the GI50 is 22.8 µM (inactive) in the experiment with 786-0; 36 µM (inactive) with CAKI-1; 43.7 µM (inactive) with EKVX; 17.5 µM (inactive) in the experiment with LOX IMVI; 43.8 µM (inactive) with LXFL 529; 36.7 µM (inactive) with NCI-H23. Also, the GI50 in the experiment on NCI-H460 was 35.2 µM (inactive); in the experiment with OVCAR-8, 33.5 µM (inactive); in the experiment with SF-268, 15.2 µM (inactive); in the experiment with SF-539, 33.3 µM (inactive); with SK-MEL-28, 17.6 µM (inactive); in the experiment with SK-MEL-2, 19 µM (inactive). Also, the GI50 in the experiment on SN12C was 19.5 µM (inactive).
Regarding `O=C(Nn1cnn2c(=O)c3ccccc3nc2c1=O)c1ccccc1`, the GI50 in the experiment on 786-0, in the experiment on BT-549, with CAKI-1, in the experiment with EKVX, in the experiment on HCC 2998 and with LOX IMVI was > 100 µM (inactive) in each case. Further, the GI50 in the experiment on MDA-MB-435, in the experiment on MDA-N, in the experiment with Malme-3M, with NCI-H23, with NCI-H460 and in the experiment on OVCAR-8 was > 100 µM (inactive) in each case. For the same molecule, the GI50 in the experiment on PC-3, in the experiment on SF-268, in the experiment on SF-539, in the experiment on SK-MEL-28, in the experiment on SK-MEL-2 and in the experiment with SN12C was > 100 µM (inactive) throughout. In the experiment with U-251, the GI50 is > 100 µM (inactive).
For `COC(=O)/C=c1/c2ccccc2n2nc3ccccc3c12`, the GI50 in the experiment on 786-0 was 27.6 µM (inactive); in the experiment on BT-549 it was > 100 µM (inactive); in the experiment on CAKI-1, 63 µM (inactive); with EKVX, > 100 µM (inactive); with HCC 2998 it was 62.5 µM (inactive); in the experiment on LOX IMVI, 36.9 µM (inactive). The GI50 is 33 µM (inactive) in the experiment on MDA-MB-435; 30.8 µM (inactive) with MDA-N; 99.1 µM (inactive) with Malme-3M; 66.5 µM (inactive) in the experiment with NCI-H23; 43.9 µM (inactive) in the experiment with NCI-H460; > 100 µM (inactive) in the experiment with OVCAR-8. Moreover, the GI50 was > 100 µM (inactive) in the experiment with PC-3; 49.9 µM (inactive) in the experiment with SF-268; 26.6 µM (inactive) in the experiment on SF-539; > 100 µM (inactive) in the experiment with SK-MEL-28; 74.6 µM (inactive) with SK-MEL-2; 66.8 µM (inactive) with SN12C. The GI50 with U-251 was 69 µM (inactive).
Take `O=C1/C=C(/c2ccc(O)cc2)[C@@H](OC2OC(CO)C(O)C(O)C2O)Cc2ccc(O)cc2O1.O=C1/C=C(/c2ccc(O)cc2)[C@H](O)Cc2ccc(O[C@@H]3OC(CO)C(O)C(O)C3O)cc2O1` (stereo partly drawn): the GI50 in the experiment on 786-0, in the experiment on CAKI-1, with EKVX, with LOX IMVI, in the experiment on LXFL 529 and with Malme-3M was > 100 µM (inactive) each time. The GI50 with NCI-H23, with NCI-H460, in the experiment on OVCAR-8, in the experiment on SF-268, in the experiment with SF-539 and in the experiment on SK-MEL-2 was > 100 µM (inactive) each time. In addition, the GI50 in the experiment with SN12C and in the experiment with U-251 was > 100 µM (inactive) each time.
In the case of `OC1[C@@H]2[C@@H](O)CCCN2C[C@@H](O)[C@H]1O` (stereo partly drawn), the GI50 in the experiment with 786-0, with BT-549, with CAKI-1, in the experiment with EKVX, in the experiment on HCC 2998 and in the experiment on LOX IMVI was > 100 µM (inactive) each time. Also, the GI50 with MDA-MB-435, in the experiment on MDA-N, in the experiment with Malme-3M, in the experiment on NCI-H23, with NCI-H460 and with OVCAR-8 was > 100 µM (inactive) each time. Moreover, the GI50 with PC-3, with SF-268, in the experiment on SF-539, in the experiment on SK-MEL-28, in the experiment on SK-MEL-2 and in the experiment with SN12C was > 100 µM (inactive) each time. Further, the GI50 in the experiment on U-251 is > 100 µM (inactive).
`BrCCC[P+](c1ccccc1)(c1ccccc1)c1ccccc1`: the GI50 in the experiment with 786-0 is 13.5 µM (inactive); in the experiment with BT-549, 8.39 µM (inactive); with CAKI-1, > 100 µM (inactive); in the experiment on EKVX it was 14.4 µM (inactive); with HCC 2998, > 68.4 µM (inactive); in the experiment with LOX IMVI, 0.736 µM (active). The GI50 in the experiment on MDA-MB-435 was 4.61 µM (inactive); with MDA-N it was 8.2 µM (inactive); in the experiment on Malme-3M, 16.2 µM (inactive); in the experiment on NCI-H23 it was 12.3 µM (inactive); with NCI-H460 it was 15.2 µM (inactive); with OVCAR-8, 12.4 µM (inactive). The GI50 with PC-3 is 5.65 µM (inactive); in the experiment with SF-268, 16.7 µM (inactive); in the experiment on SF-539 it was 8.47 µM (inactive); in the experiment on SK-MEL-28, 19 µM (inactive); with SK-MEL-2, 26.7 µM (inactive); in the experiment on SN12C, 23.1 µM (inactive). The GI50 in the experiment with U-251 is 6.32 µM (inactive).
With `CCOC(=O)c1c(NC(=O)c2cccs2)sc2c1CCCC2`, the GI50 in the experiment on 786-0 was 34.8 µM (inactive); with BT-549 it was 58.7 µM (inactive); in the experiment with CAKI-1 it was 60.4 µM (inactive); with EKVX it was 54.8 µM (inactive); in the experiment on HCC 2998, > 100 µM (inactive); in the experiment on LOX IMVI, > 100 µM (inactive). The GI50 is > 100 µM (inactive) in the experiment on MDA-MB-435; > 100 µM (inactive) with MDA-N; 29 µM (inactive) in the experiment on Malme-3M; 48.3 µM (inactive) with NCI-H23; > 88.9 µM (inactive) in the experiment with NCI-H460; 61.9 µM (inactive) in the experiment with OVCAR-8. The GI50 in the experiment with PC-3 was 54.8 µM (inactive); with SF-268, 28.1 µM (inactive); in the experiment with SF-539 it was 24.4 µM (inactive); with SK-MEL-28, > 100 µM (inactive); in the experiment with SK-MEL-2, 42 µM (inactive); with SN12C, > 90.4 µM (inactive). Also, the GI50 in the experiment on U-251 is 28.1 µM (inactive).
With `Cc1ccc(-c2cc(C(F)(F)F)nn2-c2ccc(S(N)(=O)=O)cc2)cc1` [CELECOXIB], the GI50 with 786-0 was 37.1 µM (inactive); in the experiment on BT-549, 18.5 µM (inactive); in the experiment with CAKI-1, 19.6 µM (inactive); in the experiment on EKVX, 17.9 µM (inactive); in the experiment with HCC 2998, 15.7 µM (inactive); in the experiment on LOX IMVI, 18.2 µM (inactive). Besides, the GI50 was 17.5 µM (inactive) in the experiment on MDA-MB-435; 17.1 µM (inactive) with MDA-N; 18.6 µM (inactive) in the experiment with Malme-3M; 17.1 µM (inactive) in the experiment with NCI-H23; 15.8 µM (inactive) in the experiment with NCI-H460; 19.7 µM (inactive) in the experiment on OVCAR-8. Besides, the GI50 with PC-3 was 13.4 µM (inactive); with SF-268 it was 16.9 µM (inactive); in the experiment with SF-539, 18.1 µM (inactive); in the experiment on SK-MEL-28, 17.6 µM (inactive); in the experiment with SK-MEL-2, 16.1 µM (inactive); in the experiment with SN12C it was 15.6 µM (inactive). Also, in the experiment on U-251, the GI50 was 16.1 µM (inactive).
